Experimental data reported in publication PMC5581131, “The novel sphingosine-1-phosphate receptors antagonist AD2900 affects lymphocyte activation and inhibits T-cell entry into the lymph nodes” (Oncotarget, 2017).

What was measured:
[1] = tested on: CCR7-expressing PBMCs; assay: CCR7 surface expression on PBMCs, FACS; format: cell-based, human; conditions: 100 nM, 30-min treatment
Experimental: Figure 3 AD2900 downregulates the percentage of S1P1- and CCR7-expressing cells in PBMCs (A, B) The percentages of S1P1-positive PBMCs after the treatment with different concentrations of AD2900, FTY720, or SEW2871 and at different time points were examined by FACS analysis. S1P1 expression was tested in PBMCs after a 30-min treatment with AD2900 at different concentrations (A) or after a 30-min or 60-min treatment with 100 nM AD2900, FTY720, or SEW2871 (B). (C) The percentage of CCR7-positive PBMCs was tested by FACS analysis after a 30-min treatment with 100 nM AD2900, FTY720, or SEW2871. All the significances are compared to untreated PBMCs. Results summarize the results of at least four independent experiments. Results of Student’s t-test: *(P < 0.05, two-tailed test), ** (P < 0.01, two-tailed test), *** (P < 0.001, two-tailed test), **** (P < 0.0001, two-tailed test).
CCR7 is known as a lymph node homing receptor, and it is also involved in lymphocyte recirculation. Together with S1P1, CCR7 controls the circulation of lymphocytes between the SLOs and the blood or lymph. We therefore examined the effect of AD2900 on the level of CCR7-surface-expressing PBMCs.
Human PBMCs: For the apoptosis test, anti-AnnexinV-FITC (BD Biosciences, CA, USA) was used. […]

[2] = tested on: C57BL/6J female mice; assay: Leukocyte counts in thymus, blood, spleen and lymph nodes after oral administration in drinking water; format: in vivo, mouse; conditions: 1.8 mg/l in drinking water
Experimental: Next, 7- to 8-week-old C57BL/6J female mice were orally administered with AD2900 mixed in drinking water in different dosages (1.8, 2.7, or 3.6 mg/l) for 2 days (Figure 4A) or 7 days (Figure 4B); FTY720 was used as a positive control. In the 7-day experiment, the water was replaced on Day 3 with fresh water containing the same concentration of analog. At the end of the experiment, blood, spleen, inguinal lymph nodes, and thymus were obtained from each animal and the number of leukocytes was evaluated.
Figure 4 AD2900 treatment alters the distribution of leukocytes in the thymus, blood, spleen, and peripheral lymph nodes in mice C57BL/6 female mice were orally administered with 1.8 mg/l AD2900 in their drinking water for 2 days (A) or 7 days (B), and FTY720 (1.8 mg/l) was used as a positive control. Leukocytes from the thymus, blood, spleen, and peripheral lymph nodes (pLNs) were collected and counted. All the significances are compared to untreated healthy mice. Results summarize four independent experiments in figure (A) and two independent experiments in figure (B). n = 4–7 mice per group in each experiment. Results of Student’s t-test:*(P < 0.05, two-tailed test), ** (P < 0.01, two-tailed test), *** (P < 0.001, two-tailed test), **** (P < 0.0001, two-tailed test).
(§1) C57BL/6 female mice aged 7–8 weeks were obtained from Harlan Laboratories (Jerusalem, Israel). The animal study was conducted under appropriate conditions and was approved by the Institutional Animal Care and Use Committee of the Hebrew University of Jerusalem in accordance with the national laws and regulations for the protection of animals. AD2900 was dissolved in 10% BSA (MP Biomedicals, CA, USA) in DDW at 1 mg/ml and then further diluted in 200 ml water to get final concentrations at 1.8, 2.7, or 3.6 mg/l. AD2900 and FTY720 were supplied ad libitum to the mice for 2 days or 7 days. At the end of the experiment, blood was collected, and the mice were sacrificed and tissues (lymph nodes and spleen) were harvested.
Murine blood samples, collected in tubes coated with EDTA (Grelner bio-one, Germany), were counted by a Mindray veterinary hematology Analyzer (Mindray, China). Single cell suspensions of lymph nodes and spleen were made in 1.5 ml of PBS. Cell counts were determined from these suspensions, yielding results in thousands of cells per microliter (μl).

[3] = tested on: C57BL/6 mice; assay: S1P1-positive T-cell population in vivo, FACS; set-up: species or system mouse; conditions: for increase of S1P1-positive T cells in the blood, of normal expression levels / increase of S1P1 population, spleen T cells / decrease of S1P1 population in the lymph nodes: 2-day treatment
Text: (§2) The S1P gradient is a crucial factor for lymphocytes to egress from lymphoid tissues and re-enter the circulation. […] To identify whether the effect of AD2900 on T-cell localization may be mediated by an influence on S1P1 and CCR7 expression, we tested the percentage of S1P1- and CCR7-positive T-cell populations in the blood, spleen, and lymph node in each mouse after a 2-day treatment with AD2900. The percentage of cells expressing S1P1 or CCR7 on their cell surface was detected by FACS analysis and was calculated as % of expressing population in non-treated animals. […] AD2900 elevates the S1P1-expressing population in the blood and spleen, whereas it reduces this population in the lymph nodes. […] In the lymph nodes, the […] population was not affected by AD2900 treatment (Figure 7F).
(§3) Figure 7 The influence of AD2900 on S1P1- and CCR7-positive T-cell populations in blood, spleen, and peripheral lymph nodes C57BL/6 mice were orally administered with 1.8, 2.7, and 3.6 mg/l AD2900 or 1.8 mg/l FTY720 for 2 days, as shown in Figure 4. Leukocytes from blood, spleen, and pLNs were collected and stained with CD3e and S1P1 or CCR7 fluorescent antibodies and then analyzed by FACS analysis. The percentages of S1P1+ CD3e+ T cells from blood (A), spleen (B), and pLNs (C) are shown. The percentages of CCR7+ CD3e+ T cells from blood (D), spleen (E), and pLNs (F) are shown. All the significances are compared to untreated healthy mice. Results summarize at least three independent experiments. Results of Student’s t-test:*(P < 0.05, two-tailed test), ** (P < 0.01, two-tailed test), *** (P < 0.001, two-tailed test), **** (P < 0.0001, two-tailed test).
as §1

[4] = tested on: C57BL/6 mice; assay: CCR7-positive T-cell population in vivo, FACS; set-up: species or system mouse
Text: as §2, §3
Murine lymphocytes: The phenotype of murine lymphocytes was analyzed by flow cytometry using anti-CD3e-FITC, anti-CD19-PB, anti-CCR7-APC, anti-CD44-FITC, anti-CD62L-APC, and anti-TCR-β-PB (Biolegend, CA, USA).
as §1

CCCCCCCCCCCCCCCCNC(CO)(CO)CO [AD2900]
reduction of the normal percentage of CCR7-expressing cell population [1]: 22% ± 5%
increase of splenocyte counts ([2]; 2-day treatment): 33% ± 9%
increase of thymus WBC count ([2]; 2-day treatment): 25% ± 8.2%
increase of mice WBC count ([2]; 7-day treatment): 23% ± 7%
increase of splenocyte counts ([2]; 7-day treatment): 20% ± 7%
reduction of the number of leukocytes in the lymph nodes, of that of the control ([2]; 7-day treatment): 18% ± 4%
increase of S1P1-positive T cells in the blood, of normal expression levels ([3]; 1.8 mg/l): 20% ± 4%
increase of S1P1 population, spleen T cells ([3]; 1.8 mg/l): 12% ± 5%
decrease of S1P1 population in the lymph nodes ([3]; 2.7 mg/l): 12% ± 3%
increase of S1P1-positive T cells in the blood, of normal expression levels ([3]; 2.7 mg/l): 16% ± 5%
increase of S1P1 population, spleen T cells ([3]; 2.7 mg/l): 31% ± 5%
decrease of S1P1 population in the lymph nodes ([3]; 3.6 mg/l): 18% ± 11%
increase of S1P1-positive T cells in the blood, of normal expression levels ([3]; 3.6 mg/l): 18% ± 4%
decrease of CCR7-positive T cells in the blood, of the normal expression levels ([4]; 1.8 mg/l, 2-day treatment): 21% ± 5%
decrease of CCR7-positive T cells in the blood, of the normal expression levels ([4]; 2.7 mg/l, 2-day treatment): 15% ± 4%
decrease of the S1P1 population, spleen T cells (Figure 7E) ([4]; 3.6 mg/l (highest dose), 2-day treatment): 12% ± 4%
S1P1 population in the lymph nodes (Figure 7F) ([4]; 2-day treatment): not affected

CCCCCCCCc1ccc(CCC(N)(CO)CO)cc1 [FTY720, Fingolimod, reference compound]
lymph node leukocyte count ([2]; 2-day and 7-day treatments): only minor effects
WBC and splenocyte counts ([2]; both 2-day and 7-day treatments): dramatically reduced
effects on the S1P1 population in murine blood, spleen, and lymph nodes ([3]; 1.8 mg/l, 2 days): did not demonstrate any effects
reduction of the CCR7 population in murine blood, spleen, and lymph nodes ([4]; 1.8 mg/l, 2 days): 15%–20%
